A word on the Km: it is the concentration of substrate that gives half-maximal velocity.

The results in this text go back to EP4299736A2, “HYDROLASES AND USES THEREOF” (Vilnius University, priority 2022, dated 2024).

Assay in all cases: Spectrophotometric assay of hydrolytic activity (kinetic parameters)
Holding throughout (type): biochemical

The target of assay [1] is hydrolase Seq ID No: 1 (metagenomic, wild-type hydrolase) (uncultured bacterium, UniProt A0ACD6BAS6). To be noted: potassium phosphate buffer, pH 7.5, 22 °C; for kcat / Vmax: 310 nm (BzdC) or 290 nm (dC); for Vmax: unit not given; for Km: absorbance decrease at 310 nm (BzdC) or 290 nm (dC), Michaelis-Menten fit. As for the experimental part:
(§1) For the spectrophotometric assay, the reaction was started by adding an appropriate amount of protein to potassium phosphate buffer, pH 7.5 supplemented with 0.3, 0.15, 0.1, 0.075, 0.05, 0.0375, 0.025, 0.0125 mM N^4-benzoyl-2'-deoxycytidine, or 1, 0.8, 0.5, 0.4, 0.25, 0.2, 0.1, 0.05 mM 2'-deoxycytidine. Then, decreases in absorbance at either 310 for N^4-benzoyl-2'-deoxycytidine or 290 nm for 2'-deoxycytidine were recorded at 22 °C. Kinetic parameters (Table x) were calculated using Imfit-py 1.0.2 software fitting the experimental data to a simple Michaelis-Menten kinetics scheme. Table 5. Kinetic parameters of hydrolases. Substrate: BzdC - N4-benzoyl-2'-deoxycytidine; dC-2'-deoxycytidine.

The subject of assay [2] is hydrolase Seq ID No: 3 (metagenomic hydrolase). The conditions noted are these: potassium phosphate buffer, pH 7.5, 22 °C; for kcat / Vmax: 310 nm (BzdC) or 290 nm (dC); for Vmax: unit not given; for Km: absorbance decrease at 310 nm (BzdC) or 290 nm (dC), Michaelis-Menten fit. As for the experimental part: as §1
The target of assay [3] is hydrolase variant Seq ID No: 15 (site-directed mutant) (uncultured bacterium, UniProt A0ACD6BAS6). The conditions noted are these: potassium phosphate buffer, pH 7.5, 22 °C, 310 nm (BzdC) or 290 nm (dC); for Vmax: unit not given.
Source text: (§2) Mutations in the hydrolase's genes were introduced using methodology based on "Phusion™ Site-Directed Mutagenesis Kit" (Thermo Fisher Scientific). For specific mutagenesis, primer pairs meant to amplify the whole plasmid with the target protein gene, where one primer has miss-matched base pairs in the middle, were created (Fw/Rv): […]/[…] (SEQ ID NO:10); [formula] [formula] […]/[…] (SEQ ID NO:13); [formula] [formula] […]/[…] and […]/[…] (SEQ ID NO: 16, SEQ ID NO: 17, SEQ ID NO: 18); [formula] […]/[…] (SEQ ID NO: 21); [formula] […]/[…] (SEQ ID NO: 23); […]/[…] (SEQ ID NO: 24).
as §1

Assay [4] concerns the target hydrolase variant Seq ID No:13 (site-directed mutant) (uncultured bacterium, UniProt A0ACD6BAS6, form not given/G85I). To be noted: potassium phosphate buffer, pH 7.5, 22 °C, 310 nm (BzdC) or 290 nm (dC).
Source text: as §2, §1

For assay [5], the target named is hydrolase variant Seq ID No: 10 (site-directed mutant) (uncultured bacterium, UniProt A0ACD6BAS6, DEL127-130, form not given). The conditions noted are these: potassium phosphate buffer, pH 7.5, 22 °C, 310 nm.
Source text: as §2, §1

The target of assay [6] is hydrolase variant Seq ID No: 11 (site-directed mutant) (uncultured bacterium, UniProt A0ACD6BAS6). To be noted: potassium phosphate buffer, pH 7.5, 22 °C, 310 nm.
Source text: as §2, §1

In assay [7] the target is hydrolase variant Seq ID No: 12 (site-directed mutant) (uncultured bacterium, UniProt A0ACD6BAS6). The conditions noted are these: potassium phosphate buffer, pH 7.5, 22 °C; 310 nm; unit not given.
Source text: as §2, §1

hydrolase variant Seq ID No: 15 (site-directed mutant), sequence (A0ACD6BAS6 entry or part of it, change not shown): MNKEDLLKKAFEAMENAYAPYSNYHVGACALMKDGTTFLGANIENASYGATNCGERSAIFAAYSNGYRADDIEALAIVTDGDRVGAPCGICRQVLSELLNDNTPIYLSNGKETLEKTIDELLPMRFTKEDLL
hydrolase Seq ID No: 1 (metagenomic, wild-type hydrolase), sequence (A0ACD6BAS6 entry or part of it): as the sequence (A0ACD6BAS6 entry or part of it, change not shown) above
hydrolase variant Seq ID No:13 (site-directed mutant), sequence (A0ACD6BAS6 entry or part of it G85I, form open): as the sequence (A0ACD6BAS6 entry or part of it, change not shown) above
hydrolase variant Seq ID No: 10 (site-directed mutant), sequence (A0ACD6BAS6 entry or part of it DEL127-130): as the sequence (A0ACD6BAS6 entry or part of it, change not shown) above
hydrolase variant Seq ID No: 11 (site-directed mutant), sequence (A0ACD6BAS6 entry or part of it, change not shown): as above
hydrolase variant Seq ID No: 12 (site-directed mutant), sequence (A0ACD6BAS6 entry or part of it, change not shown): as above

Regarding `Nc1ccn([C@H]2C[C@H](O)[C@@H](CO)O2)c(=O)n1` [dC, 2'-deoxycytidine], the kcat result in assay [1] is given as “(24.4 ± 1.71) × 10 ^-1 s^-1”; in assay [2], “(2.09 +/- 0.09) ×10^-1 s^-1”; in assay [3], “(2.58 ± 0.09) × 10^-2 s^-1”; in assay [4], “(6.87 ± 0.80) × 10 ^-1 s^-1”. The Vmax entry in assay [1] is listed as “(2.67 ± 0.19) × 10^-4”; in assay [2], “(1.20 ± 0.05) × 10^-4”; in assay [3], “(6.70 ± 0.24) × 10^-5”; in assay [4] (unit not given), “(4.35 ± 0.51) × 10^-4”. Also, the Km in assay [1] turned out to be 195 µM; in assay [2] it was 182 µM.
On to `O=C(Nc1ccn([C@H]2C[C@H](O)[C@@H](CO)O2)c(=O)n1)c1ccccc1` [BzdC, N4-benzoyl-2'-deoxycytidine], for which the kcat entry in assay [1] is “(5.04 ± 0.4) ×10^-1 s^-1”; in assay [2], “(3.81 +/- 0.24) × 10 ^-1 s^-1”; in assay [5], “(5.41 ± 0.23) × 10^-2 s^-1”; in assay [3], “(1.22 ± 0.09) × 10^-2 s^-1”; in assay [4] it was “(2.36 ± 0.01) × 10 ^-1 s^-1”; in assay [6], “(3.88 ± 0.80) × 10^-2 s^-1”. For the same molecule, the Vmax result is given as “(1.00 ± 0.08) × 10^-4” in assay [1]; “(6.55 ± 0.41) × 10^-5” in assay [2]; “(5.49 ± 0.23) × 10^-5” in assay [5] (unit not given); “(3.17 ± 0.25) × 10^-5” in assay [3]; “(4.56 ± 0.093) × 10^-5” in assay [6] (unit not given); “(1.19 ± 0.15) × 10^-4” in assay [7]. In addition, the results for the Michaelis constant (Km) in assay [1] and in assay [2] were 115 µM and 46.5 µM, respectively.
